In US20250090540A1, “PI3K-ALPHA INHIBITORS AND METHODS OF USE THEREOF” (Relay Therapeutics, Inc., priority 2021, published 2025) one finds IC50 data, which are given here for 23 molecules.

The target in one assay is H1047R PIK3CA enzyme (Homo sapiens, UniProt P42336, H1047R). The assay is described as follows: ADP-Glo Biochemical PIK3CA Kinase Assay. (In general: In ADP-Glo the light output rises with the ADP produced.)
A short description of a further assay: cells. To be noted: Homo sapiens, MCF-10A, read-out: MCF10A I50.

Sequence of H1047R PIK3CA enzyme (P42336 whole entry H1047R): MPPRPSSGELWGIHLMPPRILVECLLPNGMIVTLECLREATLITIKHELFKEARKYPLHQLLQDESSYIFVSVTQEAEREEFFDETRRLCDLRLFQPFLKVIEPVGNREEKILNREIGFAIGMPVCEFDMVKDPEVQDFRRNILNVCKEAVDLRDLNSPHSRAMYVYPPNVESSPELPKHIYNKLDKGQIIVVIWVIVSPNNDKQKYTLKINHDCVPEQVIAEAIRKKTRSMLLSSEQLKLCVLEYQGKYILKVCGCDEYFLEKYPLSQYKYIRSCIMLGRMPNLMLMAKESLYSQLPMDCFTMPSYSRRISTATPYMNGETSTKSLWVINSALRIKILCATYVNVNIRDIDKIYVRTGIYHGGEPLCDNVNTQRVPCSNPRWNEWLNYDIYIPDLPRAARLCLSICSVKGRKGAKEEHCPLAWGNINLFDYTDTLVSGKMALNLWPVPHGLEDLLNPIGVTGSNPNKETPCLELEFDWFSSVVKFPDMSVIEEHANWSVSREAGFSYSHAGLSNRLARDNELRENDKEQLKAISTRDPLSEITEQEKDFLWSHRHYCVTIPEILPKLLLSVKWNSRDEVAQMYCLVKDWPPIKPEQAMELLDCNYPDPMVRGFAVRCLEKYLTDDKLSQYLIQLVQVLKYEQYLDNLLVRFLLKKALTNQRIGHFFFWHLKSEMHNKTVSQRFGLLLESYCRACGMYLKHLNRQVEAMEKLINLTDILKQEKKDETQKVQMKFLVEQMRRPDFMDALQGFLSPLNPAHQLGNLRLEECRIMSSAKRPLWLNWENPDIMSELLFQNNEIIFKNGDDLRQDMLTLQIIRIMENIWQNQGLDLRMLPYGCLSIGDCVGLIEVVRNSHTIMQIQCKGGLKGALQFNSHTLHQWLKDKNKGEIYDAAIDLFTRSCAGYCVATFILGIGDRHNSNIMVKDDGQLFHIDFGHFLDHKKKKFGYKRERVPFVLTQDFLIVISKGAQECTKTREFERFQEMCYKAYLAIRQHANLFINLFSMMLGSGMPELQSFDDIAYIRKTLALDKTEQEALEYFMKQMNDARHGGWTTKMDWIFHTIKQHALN
Sequence of H1047R PIK3CA enzyme (P27986 whole entry partner): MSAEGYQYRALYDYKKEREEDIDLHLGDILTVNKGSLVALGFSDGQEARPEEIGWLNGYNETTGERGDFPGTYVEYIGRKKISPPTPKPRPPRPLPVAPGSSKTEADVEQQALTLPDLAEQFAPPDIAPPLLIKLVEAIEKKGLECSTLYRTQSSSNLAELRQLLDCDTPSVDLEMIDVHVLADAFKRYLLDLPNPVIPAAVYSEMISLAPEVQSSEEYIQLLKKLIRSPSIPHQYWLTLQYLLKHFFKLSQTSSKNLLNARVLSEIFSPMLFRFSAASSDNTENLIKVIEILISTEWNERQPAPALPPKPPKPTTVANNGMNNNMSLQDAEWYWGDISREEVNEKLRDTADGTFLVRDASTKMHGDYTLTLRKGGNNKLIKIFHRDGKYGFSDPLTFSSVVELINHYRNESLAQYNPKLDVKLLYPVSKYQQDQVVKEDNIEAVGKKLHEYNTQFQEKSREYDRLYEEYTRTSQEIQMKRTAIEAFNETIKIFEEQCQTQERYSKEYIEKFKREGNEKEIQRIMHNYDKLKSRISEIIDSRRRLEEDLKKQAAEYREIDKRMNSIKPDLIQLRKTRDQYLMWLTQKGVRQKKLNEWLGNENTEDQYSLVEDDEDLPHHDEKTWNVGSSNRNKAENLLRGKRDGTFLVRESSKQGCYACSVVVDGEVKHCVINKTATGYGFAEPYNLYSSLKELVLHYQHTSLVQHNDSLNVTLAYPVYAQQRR

With `CNC(=O)c1cnc(Nc2ccc(C)cc2)c(NC(=O)c2cc(F)cc(C(F)(F)F)c2)c1` [I-36], the IC50 fell in the range of 500 to 1000 nM on H1047R PIK3CA enzyme and 10000 to 36000 nM in the assay “cells”.
`CNC(=O)c1cnc(Nc2ccccc2C)c(NC(=O)c2csc3ccccc23)c1` [I-41]: the IC50 on H1047R PIK3CA enzyme is 100 to 500 nM; in the assay “cells”, 10000 to 36000 nM.
For `Cc1ccccc1Nc1ncc(C(C)(C)O)cc1NC(=O)c1cc(F)cc(C(F)(F)F)c1` [I-42] the same measures were 1000 to 10000 nM and 10000 to 36000 nM.
Consider `Cc1ccccc1Nc1ncc(-c2cccc(S(N)(=O)=O)c2)cc1NC(=O)c1cc(F)cc(C(F)(F)F)c1` [I-45], for which the figures for the IC50 against H1047R PIK3CA enzyme and in “cells” were 100 to 500 nM and 1000 to 5000 nM, respectively.
With `Cc1ccccc1Nc1ncc(-c2ccc(C#N)cc2)cc1NC(=O)c1cc(F)cc(C(F)(F)F)c1` [I-46], the IC50 against H1047R PIK3CA enzyme was 100 to 500 nM; in the assay “cells” it was 1000 to 5000 nM.
For `Cc1ccccc1Nc1ncc(C(=O)NC2CS(=O)(=O)C2)cc1NC(=O)c1cc(F)cc(C(F)(F)F)c1` [I-51] the same measures were at most 100 nM and below 1000 nM.
For `Cc1ccccc1Nc1ncc(C(=O)NCc2ccnn2C)cc1NC(=O)c1cc(F)cc(C(F)(F)F)c1` [I-52] the same measures were 100 to 500 nM and 1000 to 5000 nM.
For `Cc1ccccc1Nc1ncc(C(=O)NCc2cnn(C)c2)cc1NC(=O)c1cc(F)cc(C(F)(F)F)c1` [I-53] the same measures were 100 to 500 nM and 5000 to 10000 nM.
For `Cc1ccccc1Nc1ncc(NC(=O)OC(C)(C)C)cc1NC(=O)c1cc(F)cc(C(F)(F)F)c1` [I-54], the IC50 against H1047R PIK3CA enzyme lay in the range of 1000 to 10000 nM; in “cells” it was 10000 to 36000 nM.
Regarding `COc1ncc(-c2cnc(Nc3ccccc3C)c(NC(=O)c3cc(F)cc(C(F)(F)F)c3)c2)cn1` [I-57], the IC50 against H1047R PIK3CA enzyme lay in the range of 500 to 1000 nM; in “cells”, 1000 to 5000 nM.
On to `Cc1ccccc1Nc1ncc(Br)cc1NC(=O)c1cc(F)cc(C(F)(F)F)c1` [I-60], for which the IC50 against H1047R PIK3CA enzyme lay in the range of 1000 to 10000 nM; in the assay “cells”, 1000 to 5000 nM.
For `Cc1ccccc1Nc1ncc(C(=O)NCc2nccs2)cc1NC(=O)c1cc(F)cc(C(F)(F)F)c1` [I-65] the same measures were 100 to 500 nM and 1000 to 5000 nM.
As to `Cc1ccccc1Nc1ncc(-c2cncc(C#N)c2)cc1NC(=O)c1cc(F)cc(C(F)(F)F)c1` [I-75], the IC50 at H1047R PIK3CA enzyme lay within 100 to 500 nM; in the assay “cells” it was 1000 to 5000 nM.
As to `Cc1ccccc1Nc1ncc(-c2ccc(C(N)=O)cc2)cc1NC(=O)c1cc(F)cc(C(F)(F)F)c1` [I-79], the figures for the IC50 at H1047R PIK3CA enzyme and in the assay “cells” were 100 to 500 nM and 5000 to 10000 nM, respectively.
For `Cc1ccccc1Nc1ncc(-c2ccc(O)cc2)cc1NC(=O)c1cc(F)cc(C(F)(F)F)c1` [I-82] the same measures were 500 to 1000 nM and 10000 to 36000 nM.
For `CNC(=O)c1ccc(-c2cnc(Nc3ccccc3C)c(NC(=O)c3cc(F)cc(C(F)(F)F)c3)c2)cc1` [I-84] the same measures were 1000 to 10000 nM and 5000 to 10000 nM.
For `Cc1ccccc1Nc1ncc(-c2cnn(C)c2)cc1NC(=O)c1csc2ccccc12` [I-93] the same measures were 100 to 500 nM and 5000 to 10000 nM.
Turning to `Cc1ccccc1Nc1ncc(C(=O)NCc2ccnn2C)cc1NC(=O)c1csc2ccccc12` [I-135], the values for the IC50 on H1047R PIK3CA enzyme and in the assay “cells” were 100 to 500 nM and 1000 to 5000 nM, respectively.
In the case of `Cc1ccccc1Nc1ncc(C(=O)NC2CS(=O)(=O)C2)cc1NC(=O)c1csc2ccccc12` [I-136], the values for the IC50 at H1047R PIK3CA enzyme and in the assay “cells” were at most 100 nM and 1000 to 5000 nM, respectively.
Turning to `Cc1ccccc1Nc1ncc(C(=O)NCC2CS(=O)(=O)C2)cc1NC(=O)c1csc2ccccc12` [I-137], the IC50 on H1047R PIK3CA enzyme was in the range of 100 to 500 nM; in the assay “cells” it was 5000 to 10000 nM.
For `Cc1ccccc1Nc1ncc(C(=O)NCc2nccs2)cc1NC(=O)c1csc2ccccc12` [I-138] the same measures were at most 100 nM and 5000 to 10000 nM.
With `CNC(=O)c1cnc(Nc2ccccc2C)c(NC(=O)c2nsc3ccccc23)c1` [I-139], the IC50 against H1047R PIK3CA enzyme lay within 500 to 1000 nM; in “cells”, 10000 to 36000 nM.
For `Cc1ccccc1Nc1ncc(-c2cnn(C)c2)cc1NC(=O)c1csc2ccc(F)cc12` [I-146] the same measures were 100 to 500 nM and 1000 to 5000 nM.
